Results from ChEMBL document CHEMBL1147729, “(+)-(2R,5S)-4-[4-cyano-3-(trifluoromethyl)phenyl]-2,5-dimethyl-N-[6-(trifluoromethyl)pyridin-3-yl]piperazine-1-carboxamide (YM580) as an orally potent and peripherally selective nonsteroidal androgen receptor antagonist” (J Med Chem, 2006).
The source made the active and inactive calls. No cut-off for these calls is given here.

Legend:
[1] = target: T1, Androgen receptor (Homo sapiens, UniProt P10275)
T1 sequence (P10275 whole entry): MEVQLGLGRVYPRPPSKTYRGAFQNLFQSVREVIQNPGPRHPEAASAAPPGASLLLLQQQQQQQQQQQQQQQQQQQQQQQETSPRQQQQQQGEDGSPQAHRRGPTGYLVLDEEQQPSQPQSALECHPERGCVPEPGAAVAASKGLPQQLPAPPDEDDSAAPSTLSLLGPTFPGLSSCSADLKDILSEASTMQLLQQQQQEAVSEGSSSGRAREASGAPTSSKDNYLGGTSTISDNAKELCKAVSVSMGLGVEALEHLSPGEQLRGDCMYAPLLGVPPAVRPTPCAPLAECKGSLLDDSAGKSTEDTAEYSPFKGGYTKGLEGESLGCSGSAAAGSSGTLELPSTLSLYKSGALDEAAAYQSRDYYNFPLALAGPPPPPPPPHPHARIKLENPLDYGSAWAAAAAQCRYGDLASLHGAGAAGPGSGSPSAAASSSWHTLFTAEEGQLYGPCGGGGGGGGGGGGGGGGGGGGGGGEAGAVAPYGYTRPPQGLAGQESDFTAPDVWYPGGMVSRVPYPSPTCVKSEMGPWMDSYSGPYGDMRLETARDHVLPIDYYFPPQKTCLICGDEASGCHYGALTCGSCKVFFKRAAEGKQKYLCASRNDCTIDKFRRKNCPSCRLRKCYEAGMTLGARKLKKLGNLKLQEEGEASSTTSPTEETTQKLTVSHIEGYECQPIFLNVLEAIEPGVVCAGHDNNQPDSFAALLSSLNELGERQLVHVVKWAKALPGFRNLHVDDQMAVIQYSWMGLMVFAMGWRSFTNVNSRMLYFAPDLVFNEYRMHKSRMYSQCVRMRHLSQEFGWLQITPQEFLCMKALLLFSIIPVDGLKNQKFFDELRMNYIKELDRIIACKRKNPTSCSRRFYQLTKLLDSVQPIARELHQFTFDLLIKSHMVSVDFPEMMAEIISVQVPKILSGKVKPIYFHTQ
Description: Inhibition of AR mediated transcriptional activation using reporter assay

[2] = tested on: Rattus norvegicus; assay: Effect on ventral prostate weight with reference to control in Wistar rat at 10 mg/kg/day, po; conditions: Prostate gland
[3] = tested on: Rattus norvegicus; assay: Effect on ventral prostate weight with reference to control in Wistar rat at 10 mg/kg/day, po; assay type: functional, Prostate gland; conditions: for inhibition in vivo at 10 mg/kg/day: Rattus norvegicus, Wistar; for inhibition in vivo at 10 mg/kg/day / inhibition: Prostate gland
[4] = target: T2, Progesterone receptor (Rattus norvegicus, UniProt Q63449); assay: Inhibition of rat PR
T2 sequence (Q63449 whole entry): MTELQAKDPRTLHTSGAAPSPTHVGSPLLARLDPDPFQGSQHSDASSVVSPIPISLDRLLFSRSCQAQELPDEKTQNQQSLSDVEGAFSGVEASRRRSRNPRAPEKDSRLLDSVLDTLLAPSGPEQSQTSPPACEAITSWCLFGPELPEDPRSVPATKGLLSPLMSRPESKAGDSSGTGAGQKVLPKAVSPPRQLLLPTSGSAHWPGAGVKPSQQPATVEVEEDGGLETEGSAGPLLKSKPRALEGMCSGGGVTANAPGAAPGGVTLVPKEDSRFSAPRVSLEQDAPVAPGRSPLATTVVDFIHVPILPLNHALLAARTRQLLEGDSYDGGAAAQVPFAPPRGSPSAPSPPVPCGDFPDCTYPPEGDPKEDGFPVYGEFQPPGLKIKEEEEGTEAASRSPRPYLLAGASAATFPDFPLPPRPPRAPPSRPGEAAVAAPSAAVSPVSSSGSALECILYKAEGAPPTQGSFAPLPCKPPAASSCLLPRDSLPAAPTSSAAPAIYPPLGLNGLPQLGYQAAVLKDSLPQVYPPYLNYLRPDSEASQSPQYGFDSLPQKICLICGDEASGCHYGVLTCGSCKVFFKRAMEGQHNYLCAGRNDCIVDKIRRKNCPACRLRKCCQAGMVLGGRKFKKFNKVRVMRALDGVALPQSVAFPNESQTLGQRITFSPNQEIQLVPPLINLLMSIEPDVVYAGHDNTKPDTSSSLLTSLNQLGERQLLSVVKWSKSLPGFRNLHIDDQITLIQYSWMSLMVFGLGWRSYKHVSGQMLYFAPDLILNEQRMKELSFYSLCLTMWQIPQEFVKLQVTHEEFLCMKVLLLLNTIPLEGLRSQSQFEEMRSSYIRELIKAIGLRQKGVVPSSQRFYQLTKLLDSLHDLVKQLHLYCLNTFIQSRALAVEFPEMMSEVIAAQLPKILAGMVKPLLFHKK

[5] = target: T3, Glucocorticoid receptor (Homo sapiens, UniProt P04150); assay: Inhibition of human GR
T3 sequence (P04150 whole entry): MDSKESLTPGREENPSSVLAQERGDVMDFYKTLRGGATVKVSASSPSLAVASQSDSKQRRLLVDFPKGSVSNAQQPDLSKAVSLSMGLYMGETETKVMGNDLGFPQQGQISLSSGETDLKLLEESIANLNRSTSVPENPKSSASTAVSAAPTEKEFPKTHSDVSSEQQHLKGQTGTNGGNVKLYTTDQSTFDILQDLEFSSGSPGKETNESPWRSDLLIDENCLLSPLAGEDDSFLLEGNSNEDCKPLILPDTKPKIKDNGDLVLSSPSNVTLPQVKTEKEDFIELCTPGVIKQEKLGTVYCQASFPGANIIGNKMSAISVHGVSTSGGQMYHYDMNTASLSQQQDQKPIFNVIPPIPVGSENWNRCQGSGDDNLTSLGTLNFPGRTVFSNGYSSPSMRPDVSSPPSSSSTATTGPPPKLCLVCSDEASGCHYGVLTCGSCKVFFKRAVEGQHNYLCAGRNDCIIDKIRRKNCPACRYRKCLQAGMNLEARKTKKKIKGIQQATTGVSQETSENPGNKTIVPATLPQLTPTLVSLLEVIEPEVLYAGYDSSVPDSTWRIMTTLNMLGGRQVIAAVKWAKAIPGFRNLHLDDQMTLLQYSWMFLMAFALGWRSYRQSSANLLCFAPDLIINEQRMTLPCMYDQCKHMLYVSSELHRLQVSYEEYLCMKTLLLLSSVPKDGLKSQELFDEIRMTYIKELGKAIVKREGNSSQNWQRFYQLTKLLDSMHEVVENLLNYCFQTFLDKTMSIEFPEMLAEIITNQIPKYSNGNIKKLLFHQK

[6] = Cmax in rat plasma at 3 mg/kg, po; assay type: ADME, organism-based; set-up: dose 3 mg/kg, route oral
[7] = AUC (0-72)hrs in rat plasma at 3 mg/kg, po; assay type: ADME, organism-based; set-up: time < 72 hr, dose 3 mg/kg, route oral
[8] = Half life in rat plasma at 3 mg/kg, po; assay type: ADME, organism-based; set-up: dose 3 mg/kg, route oral
[9] = Oral clearance in rat at 3 mg/kg, po; assay type: ADME, organism-based; set-up: dose 3 mg/kg, route oral; conditions: in vivo
[10] = Cmax in rat ventral prostate at 3 mg/kg, po; assay type: ADME, organism-based, Prostate gland; set-up: dose 3 mg/kg, route oral
[11] = AUC (0-72)hrs in rat ventral prostate at 3 mg/kg, po; assay type: ADME, organism-based, Prostate gland; set-up: time < 72 hr, dose 3 mg/kg, route oral
[12] = Half life in rat ventral prostate at 3 mg/kg, po; assay type: ADME, organism-based, Prostate gland; set-up: dose 3 mg/kg, route oral
[13] = Oral clearance in rat ventral prostate at 3 mg/kg, po; assay type: ADME, organism-based, Prostate gland; set-up: dose 3 mg/kg, route oral
[14] = Cmax in rat hypothalamus at 3 mg/kg, po; assay type: ADME, organism-based; set-up: dose 3 mg/kg, route oral
[15] = AUC (0-72)hrs in rat hypothalamus at 3 mg/kg, po; assay type: ADME, organism-based; set-up: time < 72 hr, dose 3 mg/kg, route oral
[16] = Half life in rat hypothalamus at 3 mg/kg, po; assay type: ADME, organism-based; set-up: dose 3 mg/kg, route oral
[17] = Oral clearance in rat hypothalamus at 3 mg/kg, po; assay type: ADME, organism-based; set-up: dose 3 mg/kg, route oral
[18] = tested on: Rattus norvegicus; assay: Effect on ventral prostate weight with reference to control in Wistar rat at 100 mg/kg/day; assay type: ADME, organism-based, Prostate gland; conditions: in vivo

| Structure (SMILES) | IC50 [1] | inhibition in vivo at 10 mg/kg/day [3] | further results |
| --- | --- | --- | --- |
| C[C@@H]1CN(c2ccc(C#N)c(C(F)(F)F)c2)[C@@H](C)CN1C(=O)Nc1ccc(F)cc1F | 0.2 µM | – | inhibition [2]: inactive |
| C[C@@H]1CN(C(=O)Nc2ccc(C(F)(F)F)nc2)[C@@H](C)CN1c1ccc(C#N)c(C(F)(F)F)c1 | – | – | inhibition [2]: inactive |
| Cc1ncccc1NC(=O)N1C[C@H](C)N(c2ccc(C#N)c(C(F)(F)F)c2)C[C@H]1C (racemic) | 0.68 µM | – | – |
| C[C@@H]1CN(c2ccc(C#N)c(C(F)(F)F)c2)[C@@H](C)CN1C(=O)Nc1ccncc1 (racemic) | – | 39% | – |
| C[C@@H]1CN(c2ccc(C#N)c(C(F)(F)F)c2)[C@@H](C)CN1C(=O)Nc1ccc(C#N)nc1 (racemic) | 0.2 µM | 53% | – |
| CSc1ccc(NC(=O)N2C[C@H](C)N(c3ccc(C#N)c(C(F)(F)F)c3)C[C@H]2C)cn1 (racemic) | 0.22 µM | 36% | – |
| COc1ncccc1NC(=O)N1C[C@H](C)N(c2ccc(C#N)c(C(F)(F)F)c2)C[C@H]1C (racemic) | 0.19 µM | – | inhibition [2]: inactive |
| C[C@@H]1CN(c2ccc(C#N)c(C(F)(F)F)c2)[C@@H](C)CN1C(=O)Nc1ccc[n+]([O-])c1 (racemic) | > 10 µM | – | – |
| C[C@@H]1CN(c2ccc(C#N)c(C(F)(F)F)c2)[C@@H](C)CN1C(=O)Nc1ccccn1 (racemic) | 7.8 µM | – | – |
| Cc1ccc(NC(=O)N2C[C@H](C)N(c3ccc(C#N)c(C(F)(F)F)c3)C[C@H]2C)cn1 (racemic) | 0.13 µM | 58% | – |
| COC(=O)c1ccc(NC(=O)N2C[C@H](C)N(c3ccc(C#N)c(C(F)(F)F)c3)C[C@H]2C)cn1 (racemic) | 0.47 µM | – | inhibition [3]: inactive |
| Cc1ccncc1NC(=O)N1C[C@H](C)N(c2ccc(C#N)c(C(F)(F)F)c2)C[C@H]1C (racemic) | 0.33 µM | 11% | – |
| CC1CN(c2ccc(C#N)c(C(F)(F)F)c2)C(C)CN1C(=O)Nc1ccc(C(F)(F)F)nc1 (racemic) | – | 64% | – |
| C[C@@H]1CN(c2ccc(C#N)c(C(F)(F)F)c2)[C@@H](C)CN1C(=O)Nc1ccc(Cl)nc1 (racemic) | 0.73 µM | 52% | – |
| C[C@@H]1CN(c2ccc(C#N)c(C(F)(F)F)c2)[C@@H](C)CN1C(=O)Nc1ccncn1 (racemic) | 4.6 µM | – | – |
| C[C@@H]1CN(c2ccc(C#N)c(C(F)(F)F)c2)[C@@H](C)CN1C(=O)Nc1cncnc1 (racemic) | 1 µM | – | – |
| C[C@@H]1CN(c2ccc(C#N)c(C(F)(F)F)c2)[C@@H](C)CN1C(=O)Nc1ncccn1 (racemic) | > 10 µM | – | – |
| C[C@@H]1CN(c2ccc(C#N)c(C(F)(F)F)c2)[C@@H](C)CN1C(=O)Nc1ccc(N)nc1 (racemic) | 0.37 µM | 39% | – |
| COc1ccc(NC(=O)N2C[C@H](C)N(c3ccc(C#N)c(C(F)(F)F)c3)C[C@H]2C)cn1 (racemic) | 0.17 µM | 52% | – |
| CC(=O)c1ccc(NC(=O)N2C[C@H](C)N(c3ccc(C#N)c(C(F)(F)F)c3)C[C@H]2C)cn1 (racemic) | 0.5 µM | 43% | – |
| COc1cncc(NC(=O)N2C[C@H](C)N(c3ccc(C#N)c(C(F)(F)F)c3)C[C@H]2C)c1 (racemic) | 0.44 µM | 18% | – |
| Cc1cncc(NC(=O)N2C[C@H](C)N(c3ccc(C#N)c(C(F)(F)F)c3)C[C@H]2C)c1 (racemic) | 0.25 µM | 11% | – |
| C[C@@H]1CN(c2ccc(C#N)c(C(F)(F)F)c2)[C@@H](C)CN1C(=O)Nc1ccc(O)nc1 (racemic) | > 10 µM | – | – |
| C[C@@H]1CN(c2ccc(C#N)c(C(F)(F)F)c2)[C@@H](C)CN1C(=O)Nc1cccnc1 (racemic) | 0.12 µM | 42% | – |
| COc1ccncc1NC(=O)N1C[C@H](C)N(c2ccc(C#N)c(C(F)(F)F)c2)C[C@H]1C (racemic) | – | – | inhibition [3]: inactive |
| CC(O)(CS(=O)(=O)c1ccc(F)cc1)C(=O)Nc1ccc(C#N)c(C(F)(F)F)c1 (stereo not given) [BICALUTAMIDE] | – | – | Inhibition [3]: 45%; Ki [4]: 7.2 µM; Ki [5]: > 100 µM; Cmax [6]: 1.41 µg/mL; AUC at 72 h [7]: 46.9 µg·h/mL; half-life [8]: 22.3 h; CL/F [9]: 0.0567 L/h/kg; Cmax [10]: 1.99 µg/mL; AUC at 72 h [11]: 52.5 µg·h/mL; half-life [12]: 23.4 h; CL/F [13]: 0.0504 L/h/kg; Cmax [14]: 0.321 µg/mL; AUC at 72 h [15]: 10.6 µg·h/mL; half-life [16]: 27.8 h; CL/F [17]: 0.225 L/h/kg; Activity [18]: 55% |
